In this series the target is CYP3A4 (Homo sapiens, UniProt P08684). As to the kind of experiment: CYP inhibition. Type of series: in vitro ADME. The settings on record: probe substrates midazolan and testosterone. An excerpt:
CYP3A4 is one of the most important enzymes involved in the metabolism of xenobiotics in the body, promoting the oxidation of the largest range of substrates of all the CYPs and is present in the largest quantity of all the CYPs in the liver.

Sequence of CYP3A4 (P08684 whole entry): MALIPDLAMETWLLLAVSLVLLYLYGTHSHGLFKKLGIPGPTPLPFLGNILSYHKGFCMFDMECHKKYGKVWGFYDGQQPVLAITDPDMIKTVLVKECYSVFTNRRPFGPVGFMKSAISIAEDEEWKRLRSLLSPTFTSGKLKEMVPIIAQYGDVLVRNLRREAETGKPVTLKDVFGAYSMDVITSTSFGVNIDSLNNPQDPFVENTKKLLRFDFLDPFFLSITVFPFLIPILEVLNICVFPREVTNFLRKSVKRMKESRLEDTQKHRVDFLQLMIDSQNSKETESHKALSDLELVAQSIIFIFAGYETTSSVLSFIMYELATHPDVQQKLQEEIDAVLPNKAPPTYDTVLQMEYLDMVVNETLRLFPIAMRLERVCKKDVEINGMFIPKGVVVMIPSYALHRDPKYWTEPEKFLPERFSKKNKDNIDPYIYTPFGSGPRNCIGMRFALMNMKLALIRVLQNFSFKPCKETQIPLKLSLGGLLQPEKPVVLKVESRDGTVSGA

Turning to `N=C(N)NCCC[C@H](NC(=O)[C@@H](N)Cc1ccc(O)cc1)C(N)=O` [KTP-NH2, L-Tyr-L-Arg-NH2], the CYP3A4 inhibition result is on record as “not to inhibit”.

These data come from US20110082087A1, “COMPOUNDS FOR TREATING PAIN” (Edificio ICAT, priority 2008, published 2011).
